Patent publication US20120289472A1, “MOLECULES CAPABLE OF INDUCING CELL DEATH BY TARGETING THE MITOCHONDRIA AND APPLICATIONS THEREOF” (priority 2009, published 2012)
Where two headings read alike, the source gives them in different places. Where a SMILES comes first, the peptide text is derived from it. Where no end group is shown, it is not given here. The star is where a group is joined. Cbz = O=C(OCc1ccccc1)*; CH2F = FC*

Legend:
isolated mitochondria = assay: Cytochrome c release from isolated mitochondria (Western blotting of supernatant); type: biochemical; conditions: for incubation time at which cytochrome c is released: 10 μM
Method: The ex cellulo activity of poropeptide-Bax (106-134) was tested by determining its ability to promote the release of cytochrome c from the intermembrane space of isolated mitochondria. The results obtained are shown by FIG. 9 (A).
The peptide is incubated with the mitochondria for 5, 15, 30 or 60 min, and the mitochondrial release of cytochrome c into the supernatant (SN) is measured by Western blotting. The mitochondrial fractions (Mito) are calibrated using an antibody directed against the HSP70 or ATPase (subunit 6) mitochondrial proteins. With poropeptide-Bax (106-134), cytochrome c is released from the intermembrane space of the mitochondrion at 10 μM and in 5 min of incubation. No release is observed when an artificial antimicrobial peptide (KLAK) of sequence SEQ ID No. 2 KLAKLAKKLAKLAK is used.

[1] = tested on: mitochondria isolated from rat liver; assay: Swelling and depolarization of mitochondria isolated from rat liver; type: biochemical
Method: Poropeptide-Bax (106-134) induces swelling of the mitochondria (DD50=1.68±0.39 μM) and a drop in their transmembrane potential (SD50=3.98±0.57 μM). These two parameters were measured using mitochondria isolated from rat liver, incubated in the presence of various concentrations of poropeptide-Bax (106-134) (NT=not treated).

Zebrafish eggs = assay: Microinjection into zebrafish eggs (mortality, malformations); type: in vivo, Danio rerio
Description: Poropeptide-Bax was microinjected in vivo. The zebrafish (Danio rerio) model was used because (i) the apoptotic machinery is conserved between human cells and fish cells; (ii) the egg corresponds to an integrated cell system compared with isolated mitochondria; (iii) zebrafish eggs can be easily injected routinely.
(A) Zebrafish eggs were microinjected at the 1-2 cell(s) stage with increasing concentrations of poro-peptide-Bax, of Bax-BH3 peptide or with ultrapure water ('mock'). A concentration of 100 μM inside the microinjection capillary corresponds to approximately […] molecules of peptide per egg. […] The data shown are representative of 2 independent experiments giving the same results. (B) Embryonic morphology 24 h after microinjection (100 μM of peptide).

[2] = tested on: SK-MEL-28 human melanoma cells; assay: Cell viability after microinjection into SK-MEL-28 melanoma cells; type: cell-based; conditions: SK-MEL-28, 12 h after microinjection; for cell death / viability after microinjection: versus control
Method: Poropeptide-Bax was then mixed with a solution of dextran-fluorescein (so as to allow its visualization by epifluorescence microscopy), and then microinjected into SK-MEL-28 human melanoma cells. Cell viability was then monitored and quantified 12 hours after microinjection.
(A) Micrographs showing SK-MEL-28 human melanoma cells injected with Dextran-FITC fluorescent tracer alone (‘mock’) or mixed with poropeptide-Bax. The cells were photographed 12 h after microinjection. […] Magnification×800. (B) Cell viability after microinjection of poropeptide-Bax or of Bax-BH3, KLAK or R8 peptide. The cells microinjected were visualized by means of the Dextran-FITC tracer. […] The data shown are representative of 2 independent experiments giving the same results.

[3] = tested on: MEF-DKO murine fibroblasts; assay: Apoptosis of wild-type MEF and Bax/Bak-deficient MEF-DKO fibroblasts (Annexin V-Cy3, flow cytometry); type: cell-based
Description: The graph (FIG. 6A) corresponds to a time course of cell death (quantified by flow cytometry by means of the Annexin V-Cy3 test) of MEF wild-type murine fibro-blasts compared with MEF-DKO murine fibroblasts.

HT-1080 cells = assay: Cell death of HT-1080 cells expressing GFP fused to Bax membrane insertion fragments; type: cell-based, human; conditions: zVAD.fmk 100 μM
Method: The various constructs were transfected into human cells cultured in vitro (HT-1080 and SK-MEL-28), and then the subcellular localization and the cytotoxicity induced by the Bax membrane insertion fragments fused to GFP were determined.
FIG. 5A gives the death rate (apoptosis/necrosis) of HT-1080 cells expressing GFP alone or as a fusion with various membrane insertion fragments of the Bax death protein. The cells were treated (+) or not (−) with the general caspase inhibitor zVAD.fmk (100 μM). Cell death was quantified 24 h after transfection by counting the number of green cells (expressing GFP) under an epifluorescence microscope. The type of cell death (apoptosis and necrosis) was determined through the membrane permeability to propidium iodide (necrosis) and the nuclear morphology (condensed or fragmented nuclei) after staining with Hoechst 33342 (apoptosis). […] The results represent the mean values (with the standard deviations) of the three experiments.
In this experiment, the cell death was quantified using the Annexin-V-Cyanine 3 test by flow cytometry 24 h after transient transfection of the cells with the plasmids of interest.

HeLa cells [4] = assay: Cytotoxicity in HeLa cells by LDH release; type: cell-based
Method: (A) HeLa cells were incubated for 6 h in the presence of 10 μM of poropeptide FITC-R8-Bax or of control peptide R8-Bax [Scr] (“scramble” version of the poropeptide), and then observed under an epifluorescence microscope. […] Scale 10 μm. […] HeLa cells were treated with increasing concentrations (5, 10, 25 and 50 μM) of peptide […] or […]. The cytotoxicity was determined by measuring the cellular release of lactate dehydrogenase (LDH) after 3, 6 or 24 h of incubation (n=4). […] The results are given in means and standard deviations. […] (25 μM). The cytotoxicity was determined by measuring the cellular release of lactate dehydrogenase (LDH) after 3, 6 or 24 h of incubation in the presence of 100 μM of zVAD.fmk or of buffer alone (‘DMSO’). The results are given as means and standard deviations. (D) Death rate (apoptosis/necrosis) of HeLa cells treated with poropeptide R8-Bax. The type of cell death was determined 24 h after transfection by observation of cell permeability to propidium iodide (necrosis) or of nuclear morphology after DNA staining with Hoechst 33342 (apoptosis). The green cells (expressing GFP) were visualized by epifluorescence microscopy. Approximately 300 cells were counted per experiment. The results are a mean of three independent experiments (the standard deviation is also represented).

HeLa cells [5] = assay: Internalization of fluorescent peptides by HeLa cells (epifluorescence microscopy); type: cell-based
Method: The poropeptide of sequence SEQ ID No. 1, comprising a polyarginine N-terminal extension (R8) separated by a glycine residue, was used. A fluorescein isothiocyanate (FITC) group was added in the C-terminal position so as to allow its visualization by epifluorescence microscopy. The R8-Scr-FITC peptide is a “scramble” sequence of the sequence present in the R8-Bax [106-134]-FITC peptide, i.e. a control sequence in which the amino acids (their order in the sequence) have been mixed-up.
(A) HeLa cells were incubated for 6 h in the presence of 10 μM of poropeptide FITC-R8-Bax or of control peptide R8-Bax [Scr] (“scramble” version of the poropeptide), and then observed under an epifluorescence microscope. […] Scale 10 μm. […] The cytotoxicity was determined by measuring the cellular release of lactate dehydrogenase (LDH) after 3, 6 or 24 h of incubation (n=4). […] The cytotoxicity was determined by measuring the cellular release of lactate dehydrogenase (LDH) after 3, 6 or 24 h of incubation in the presence of 100 μM of zVAD.fmk or of buffer alone (‘DMSO’). […] The type of cell death was determined 24 h after transfection by observation of cell permeability to propidium iodide (necrosis) or of nuclear morphology after DNA staining with Hoechst 33342 (apoptosis). […] Approximately 300 cells were counted per experiment. […]

With “H-NWGRVVALFYFASKLVLKALSTKVPELIR-OH [poropeptide-Bax (106-134)]” the “minimum concentration for which cytochrome c release is observed” value (isolated mitochondria) was 10 µM, the “incubation time at which cytochrome c is released” value (isolated mitochondria) was 5 min and the “incubation time at which cytochrome c is released” value (isolated mitochondria; listed as Poropeptide-Bax (106-134)) was no more than 5 min. For the same compound, the EC50 ([1]; read-out: drop in transmembrane potential (SD50)) was 3980 ± 570 nM, the EC50 ([1]; read-out: swelling of the mitochondria (DD50)) was 1680 ± 390 nM and the embryonic morphology (Zebrafish eggs; 24 h after microinjection, 100 μM of peptide, compared with BH3 peptide group) was “Severe malformations”. For the same compound, the “cytotoxic effects after introduction into zebrafish eggs” value (Zebrafish eggs; increasing concentrations, microinjection at 1-2 cell stage) was “dose-dependent cytotoxic effects”, the “cell morphology after microinjection” value [2] was “characteristic morphological manifestations of apoptosis” and the “cell death / viability after microinjection” value (“cell death / viability” for short) [2] was “substantial cell death”.
With `CN[C@@H]1C[C@H]2O[C@@](C)([C@@H]1OC)n1c3ccccc3c3c4c(c5c6ccccc6n2c5c31)C(=O)NC4` [staurosporine] the “apoptosis induced in MEF-DKO cells” value [3] was “resistant”.
`COC(=O)C[C@H](NC(=O)[C@H](C)NC(=O)[C@@H](NC(=O)OCc1ccccc1)C(C)C)C(=O)CF` [zVAD.fmk, reference compound] (Cbz-Val-Ala-Asp(OMe)-CH2F) was tested, and the “effect of caspase inhibitor on apoptosis caused by Bax membrane insertion fragments” value (HT-1080 cells) was “blocking of the apoptosis” and the “effect of caspase inhibitor on cell death induced by poropeptide R8-Bax [106-134] (LDH release)” value (HeLa cells [4]; HeLa, zVAD.fmk 100 μM, poropeptide 25 μM, 3, 6 or 24 h) was “reduces cell death”.
With “RRRRRRRR [R8, control peptide, a polyarginine intracellular transduction motif, reference compound]” the “cell death / viability” value [2] was “viability rates comparable to the control”.
With “KLAKLAKKLAKLAK [artificial antimicrobial peptide, reference compound]” the “cytochrome c release from intermembrane space” value (isolated mitochondria; incubation 5-60 min) was “No release” and the “cell death / viability” value [2] was “no significant effect”.
“R8-Bax [106-134]: poropeptide of SEQ ID No. 1 with polyarginine N-terminal extension (R8) separated by a glycine residue, FITC group added (RRRRRRRRGNWGRVVALFYFASKLVLKALCTKVPELIR; also: FITC group added, position not given here; UniProt Q07812 106-134, looked up, fragment)” was tested, and the time to internalization (HeLa cells [5]; HeLa cells in culture in vitro) was “in less than one hour”, the “cytoplasmic labeling of cells” value (HeLa cells [5]; HeLa, 10 μM, 6 h) was “strong cytoplasmic labeling” and the “cytotoxicity by cellular release of lactate dehydrogenase (LDH)” value (HeLa cells [4]; HeLa, 5, 10, 25 and 50 μM, 3, 6 or 24 h) was “loss of cell viability which is dose-dependent and incubation time-dependent”.
